Results taken from patent US11214594B2, “Antimicrobial peptide having synergistic antibacterial effect with antibiotics on multidrug resistant bacteria, and use thereof” (priority 2016, dated 2022).
Where two headings read alike, the source gives them in different places. Where a SMILES comes first, the peptide text is derived from it.

How the values were obtained:
MDRAB 12035 [1] = assay: MIC of antibiotic during combined treatment with antimicrobial peptide; format: cell-based, Acinetobacter baumannii
Outline: (§1)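 Strains in MH medium at 2×10^6 CFU/ml were mixed with peptide diluted stepwise (2:1) from its MIC, then antibiotic dilutions in MH medium were added to give the antibiotic MIC. The reversed set-up, peptide titrated against fixed antibiotic, gave the peptide MIC.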

E. coli = format: cell-based, Escherichia coli; details: E. coli
Outline: as §1

MDREC 1229 = format: cell-based, Escherichia coli
Outline: as §1

A. baumannii = assay: MIC of antimicrobial peptide during combined treatment with antibiotic; format: cell-based, Acinetobacter baumannii
Outline: as §1

MDRAB 12035 [2] = assay: as above; format: cell-based, Acinetobacter baumannii
Outline: as §1

[3] = peptide treatment concentration 8 μg/ml
[4] = peptide treatment concentration 16 μg/ml
[5] = peptide treatment concentration 32 μg/ml
[6] = peptide treatment concentration 64 μg/ml
[7] = linezolid 64 μg/ml (Conc./MIC 1/8)
[8] = linezolid 512 μg/ml (Conc./MIC 1)
[9] = vancomycin 512 μg/ml (Conc./MIC 1/2)
[10] = vancomycin 1024 μg/ml (Conc./MIC 1)
[11] = erythromycin 4 μg/ml (Conc./MIC 1/8)
[12] = erythromycin 8 μg/ml (Conc./MIC 1/4)
[13] = erythromycin 16 μg/ml (Conc./MIC 1/2)
[14] = erythromycin 32 μg/ml (Conc./MIC 1)

CC[C@H](C)[C@H](NC(=O)[C@H](CCCCN)NC(=O)[C@H](Cc1c[nH]c2ccccc12)NC(=O)[C@@H](N)CCCNC(=N)N)C(=O)N[C@@H](Cc1ccccc1)C(=O)N[C@@H](CCCCN)C(=O)N[C@@H](CCCCN)C(=O)N[C@H](C(=O)N1CCC[C@H]1C(=O)N[C@@H](CCCCN)C(=O)N[C@@H](Cc1ccccc1)C(=O)N[C@@H](CC(C)C)C(=O)N[C@@H](Cc1c[nH]cn1)C(=O)N[C@@H](CCC(=O)O)C(=O)N[C@@H](C)C(=O)N[C@@H](CCCCN)C(=O)N[C@@H](CCCCN)C(=O)N[C@@H](Cc1c[nH]c2ccccc12)C(N)=O)[C@@H](C)CC [PapMA-14, RWK IFK KIP KFL HEA KKW-NH2] (H-RWKIFKKIPKFLHEAKKW-NH2; N-terminus assumed)
Vancomycin MIC during combined treatment with peptide (MDRAB 12035 [1]; peptide treatment concentration 6 μg/ml): 4 µg/mL
Erythromycin MIC during combined treatment with peptide (MDRAB 12035 [1]; [3]): 0.5 µg/mL
Linezolid MIC during combined treatment with peptide (MDRAB 12035 [1]; [3]): 1 µg/mL
Vancomycin MIC during combined treatment with peptide (MDRAB 12035 [1]; [3]): 1 µg/mL
Erythromycin MIC during combined treatment with peptide (MDRAB 12035 [1]; [4]): 0 µg/mL
Linezolid MIC during combined treatment with peptide (MDRAB 12035 [1]; [4]): 0 µg/mL
Vancomycin MIC during combined treatment with peptide (MDRAB 12035 [1]; [4]): 0 µg/mL
Erythromycin MIC during combined treatment with peptide (MDRAB 12035 [1]; [5]): 0 µg/mL
Linezolid MIC during combined treatment with peptide (MDRAB 12035 [1]; [5]): 0 µg/mL
Vancomycin MIC during combined treatment with peptide (MDRAB 12035 [1]; [5]): 0 µg/mL
Erythromycin MIC during combined treatment with peptide (MDRAB 12035 [1]; [6]): 0 µg/mL
Linezolid MIC during combined treatment with peptide (MDRAB 12035 [1]; [6]): 0 µg/mL
Vancomycin MIC during combined treatment with peptide (MDRAB 12035 [1]; [6]): 0 µg/mL
Peptide MIC (E. coli; with Erythromycin […] (Conc./MIC 1)): 0 µg/mL
Peptide MIC (E. coli; with Linezolid […] (Conc./MIC 1)): 0 µg/mL
Peptide MIC (E. coli; with Vancomycin 1024 μg/ml (Conc./MIC 1)): 0 µg/mL
Peptide MIC during treatment with antibiotic (MDREC 1229; erythromycin 32 μg/ml (Conc./MIC 1/8)): 2 µg/mL
Peptide MIC during treatment with antibiotic (MDREC 1229; erythromycin 64 μg/ml (Conc./MIC 1/4)): 2 µg/mL
Peptide MIC during treatment with antibiotic (MDREC 1229; erythromycin […] (Conc./MIC 1)): 0 µg/mL
Peptide MIC during treatment with antibiotic (MDREC 1229; erythromycin […] (Conc./MIC 1/2)): 1 µg/mL
Peptide MIC during treatment with antibiotic (MDREC 1229; [7]): 4 µg/mL
Peptide MIC during treatment with antibiotic (MDREC 1229; [8]): 0 µg/mL
Peptide MIC during treatment with antibiotic (MDREC 1229; linezolid […] (Conc./MIC 1/2)): 1 µg/mL
Peptide MIC during treatment with antibiotic (MDREC 1229; linezolid […] (Conc./MIC 1/4)): 2 µg/mL
Peptide MIC during treatment with antibiotic (MDREC 1229; [9]): 2 µg/mL
Peptide MIC during treatment with antibiotic (MDREC 1229; [10]): 1 µg/mL
Peptide MIC during treatment with antibiotic (MDREC 1229; vancomycin […] (Conc./MIC 1/4)): 4 µg/mL
Peptide MIC during treatment with antibiotic (MDREC 1229; vancomycin […] (Conc./MIC 1/8)): 4 µg/mL
Peptide MIC during treatment with antibiotic (A. baumannii; [11]): 4 µg/mL
Peptide MIC during treatment with antibiotic (A. baumannii; [12]): 2 µg/mL
Peptide MIC during treatment with antibiotic (A. baumannii; [13]): 1 µg/mL
Peptide MIC during treatment with antibiotic (A. baumannii; [14]): 0 µg/mL
Peptide MIC during treatment with antibiotic (A. baumannii; linezolid 32 μg/ml (Conc./MIC 1/8)): 2 µg/mL
Peptide MIC during treatment with antibiotic (A. baumannii; linezolid 64 μg/ml (Conc./MIC 1/4)): 2 µg/mL
Peptide MIC during treatment with antibiotic (A. baumannii; linezolid […] (Conc./MIC 1)): 0 µg/mL
Peptide MIC during treatment with antibiotic (A. baumannii; linezolid […] (Conc./MIC 1/2)): 1 µg/mL
Peptide MIC during treatment with antibiotic (A. baumannii; [9]): 0.25 µg/mL
Peptide MIC during treatment with antibiotic (A. baumannii; [10]): 0 µg/mL
Peptide MIC during treatment with antibiotic (A. baumannii; vancomycin […] (Conc./MIC 1/4)): 0.5 µg/mL
Peptide MIC during treatment with antibiotic (A. baumannii; vancomycin […] (Conc./MIC 1/8)): 2 µg/mL
Peptide MIC during treatment with erythromycin (MDRAB 12035 [2]; [11]): 4 µg/mL
Peptide MIC during treatment with erythromycin (MDRAB 12035 [2]; [12]): 2 µg/mL
Peptide MIC during treatment with erythromycin (MDRAB 12035 [2]; [13]): 1 µg/mL
Peptide MIC during treatment with erythromycin (MDRAB 12035 [2]; [14]): 0 µg/mL
Peptide MIC during treatment with linezolid (MDRAB 12035 [2]; [7]): 2 µg/mL
Peptide MIC during treatment with linezolid (MDRAB 12035 [2]; [8]): 0 µg/mL
Peptide MIC during treatment with linezolid (MDRAB 12035 [2]; linezolid […] (Conc./MIC 1/2)): 1 µg/mL
Peptide MIC during treatment with linezolid (MDRAB 12035 [2]; linezolid […] (Conc./MIC 1/4)): 1 µg/mL
Peptide MIC during treatment with vancomycin (MDRAB 12035 [2]; [9]): 1 µg/mL
Peptide MIC during treatment with vancomycin (MDRAB 12035 [2]; [10]): 1 µg/mL
Peptide MIC during treatment with vancomycin (MDRAB 12035 [2]; vancomycin […] (Conc./MIC 1/4)): 2 µg/mL
Peptide MIC during treatment with vancomycin (MDRAB 12035 [2]; vancomycin […] (Conc./MIC 1/8)): 2 µg/mL
